Results from patent publication US11713305B2, “Zinc sensors for in vivo imaging of beta-cell function by MRI” (The Board of Regents of the University of Texas System, priority 2017, dated 2023).
Where two headings read alike, the source gives them in different places.

How the values were obtained:
[1] = comparison Dy complexes; cited from earlier work
[2] = cited from earlier work
mouse pancreas = experiment: In vivo MR imaging of glucose stimulated insulin secretion (GSIS) in the mouse pancreas; design: species or system C57B1/6 mice; details: over the first 10-15 min after injection; 0.07 mmol/kg i.v., glucose IP
Source text: Both phases of insulin secretion are considered essential, but the early RRP phase that is thought to be the first signal reduced during the development of type 2 diabetes (Komatsu et al., 2013; Hosker et al., 1989). In principle, both phases of insulin secretion should be detectable by MRI if enough sensor is present in the extracellular space during the time-course of these events. Biphasic GSIS was not detected by MRI in previous experiments using the first generation Zn^2+ sensors with a high affinity for Zn^2+ but we hypothesized that GSIS may be more easily detected using these second-generation agents having a much lower affinity for Zn^2+. To test this, dynamic MRI scans were collected after administering either GdL1, GdL2, GdL3 or GdL4 to C57B1/6 mice via a tail vein (0.07 mmol/kg). Nearly simultaneously with agent injection, a bolus (50 μL) of 20% w/v glucose was administered IP to stimulate secretion of insulin.
All animal experiments were performed in accordance with guidelines set by the UT Southwestern Institutional Animal Care and Use Committee (IACUC). Male C57b1/6 mice were fasted for at least 12 hours before imaging experiments. The animals were anaesthetized with isofluorane and catheterized via the tail vein. Once the animals were secured inside a 38 mm volume coil, the pancreas was positioned in the center of the 9.4 T Varian MRI scanner. Two 3D T1-weighted gradient echo pre-injection scans were obtained (TE/TR=1.69/3.34 ms, NEX8, Matrix=128×128 ×128). 70 μl of 20 mM contrast agent were injected i.v. and 50 μl of 20% w/v D-glucose were injected intraperitoneally and consecutive 3D T1-weighted scans were obtained sequentially to monitor signal enhancement in the pancreas. Identification of the pancreas was accomplished by locating the tissues surrounded by the spleen, stomach, and kidneys. A total of 3 animals were scanned per group and images were quantified and analyzed using ImageJ (National Institutes of Health, Bethesda, Md.). The signal intensities from ROIs of the tip of the pancreas were measured before, at every ˜3-4 minutes post D-glucose injection over 30 minutes total. The values were normalized to the signal intensity obtained from a water phantom placed on the mouse abdomen. Contrast enhancement was calculated using the formula
[formula] Statistical analysis was performed by comparing the mean values using a two-tailed t-test. Statistical difference was evaluated using t-scores and p-values at a 95 and 99% confidence level.

[3] = Kinetic inertness (transmetalation by Zn(II) in phosphate buffer); format: physicochemical; details: four equivalents of Zn^2+ in phosphate buffer (pH=7), 310 K
Source text: Shortly after the first confirmed clinical cases of nephrogenic systemic fibrosis (NSF), increased efforts have been made to design agents with high thermodynamic stability and kinetic inertness (Kallen et al., 2008; Reilly, 2008; Rofsky et al., 2008; Wiginton et al., 2008; Abujuden et al., 2009). The sensors shown here are very stable macrocyclic DO3A-monoamide derivatives with reported log KML>20. However, given that the agents reported here also have a high affinity for Zn^2+ ions, and Zn^2+ has been implicated as the major competing ion for transmetalation of Gd^3+ agents derived from linear polyamine ligands, the kinetic rate of Gd^3+ release is arguably the most critical factor in determining in vivo toxicity (Laurent et al., 2010). Using a previously published method (Laurent et al., 2010) consisting of incubating each agent with four equivalents of Zn^2+ in phosphate buffer (pH=7), we compared the kinetic stability of the agents reported here with the FDA-approved agent Magnevist® (GdDTPA, cf. FIG. 7).
Kinetic inertness was determined according to published procedures with minor modifications (Laurent et al., 2010; Silverio et al., 2009). Stock solutions of phosphate buffer (67 mM, pH=7.4), Gd(III) chelates (10 mM) and ZnCl2 (231 mM) were prepared first. Calculated volumes of stock solutions or water were pipetted into small glass vials to obtain a test solution of 300 μL with 30 mM phosphate, 1.5 mM Gd(III) chelate, and 6.0 mM Zn(II). Samples were measured 15 minutes after the sample temperature stabilized at 310 K. During the entire experiment, the samples inside the NMR tubes were kept in an incubator at 310 K. The T1 of the solutions was determined at 310 K and 0.47 T (20 MHz) at various time points within 7 days. As a reference, GdDTPA was analyzed under the same conditions. The R1^P relaxation rate is obtained by subtracting the diamagnetic contribution of the water relaxation (0.28 s-1) from the observed relaxation rate R1=(1/T1).

HSA = biological target: T1, HSA (Homo sapiens, UniProt P02768); details: used in fitting; read-out: KD for dansylglycine (HSA); cited from earlier work
T1 construct: purchased Sigma-Aldrich

[4] = Measured at 25° C., Powell et al., 1994, 1996

T1 sequence (P02768 25-609): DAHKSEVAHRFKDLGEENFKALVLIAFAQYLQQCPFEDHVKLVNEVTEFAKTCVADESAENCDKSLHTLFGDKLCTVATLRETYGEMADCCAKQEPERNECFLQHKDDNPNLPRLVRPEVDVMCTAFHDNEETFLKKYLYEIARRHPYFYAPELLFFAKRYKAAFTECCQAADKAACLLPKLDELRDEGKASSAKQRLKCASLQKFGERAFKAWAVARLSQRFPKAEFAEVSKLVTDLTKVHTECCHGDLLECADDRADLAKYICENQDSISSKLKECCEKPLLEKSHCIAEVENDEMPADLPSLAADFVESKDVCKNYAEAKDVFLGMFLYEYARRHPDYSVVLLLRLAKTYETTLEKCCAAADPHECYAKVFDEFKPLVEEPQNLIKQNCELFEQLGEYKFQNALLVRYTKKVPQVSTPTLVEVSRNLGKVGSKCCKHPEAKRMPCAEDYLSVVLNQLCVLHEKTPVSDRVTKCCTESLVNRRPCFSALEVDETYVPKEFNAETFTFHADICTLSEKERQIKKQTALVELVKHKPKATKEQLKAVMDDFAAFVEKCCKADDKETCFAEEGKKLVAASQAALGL

| Structure (SMILES) | 1/T2m^298 [1] | A1 [1] | A2 [1] | ER [1] [kJ/mol] | kex^298 [1] | ΔH^‡ [1] [kJ/mol] | further results |
| --- | --- | --- | --- | --- | --- | --- | --- |
| O=C([O-])CNC(=O)CN1CCN(CC(=O)NCC(=O)[O-])CCN(CC(=O)NCC(=O)[O-])CCN(CC(=O)NCC(=O)[O-])CC1.[Dy+3] [Dy DOTA-(gly)4] | 1000 10^4 s^−1 | −50 10^6rad s^−1K T^−1 | 0 10^9rad s^−1K^2 T^−1 | -50 | 0.09 10^6 s^−1 | 53 | – |
| O=C([O-])CN1CCN(CC(=O)[O-])CCN(CC(=O)[O-])CCN(CC(=O)[O-])CC1.[Dy+3] [DyDOTA] | 20 10^4 s^−1 | −50 10^6rad s^−1K T^−1 | 0 10^9rad s^−1K^2 T^−1 | -90 | 70 10^6 s^−1 | 90 | – |
| O=C([O-])CN1CCN(CC(=O)[O-])CCN(CC(=O)[O-])CCN(CC(=O)[O-])CC1.[Gd+3] [GdDOTA] | – | – | – | – | – | – | hyperfine coupling constant (AO/ℏ) [2, 4]: −3.7 ×10^6 rad/s; water exchange rate kex [2, 4]: 4.1e+06 s⁻¹; ER ([2]; reference complexes): 16.1 kJ/mol; EV ([2]; reference complexes): 1.0 kJ/mol; ΔH‡ ([2]; reference complexes): 49.8 kJ/mol; Δ^2 ([2]; reference complexes): 0.16 10^20 s^−2; τRO^298 ([2]; reference complexes): 77 ps; τV^298 ([2]; reference complexes): 11 ps |
| CC(O)CN1CCN(CC(=O)[O-])CCN(CC(=O)[O-])CCN(CC(=O)[O-])CC1.[Gd+3] (centres unmarked) [GdHPDO3A, reference compound] | – | – | – | – | – | – | T1-weighted MR image enhancement in pancreatic tissues and kidneys (mouse pancreas): significant image enhancements |
| CNC[C@H](O)[C@@H](O)[C@H](O)[C@H](O)CO.CNC[C@H](O)[C@@H](O)[C@H](O)[C@H](O)CO.O=C([O-])CN(CCN(CC(=O)[O-])CC(=O)O)CCN(CC(=O)[O-])CC(=O)O.[Gd+3] [Magnevist, reference compound] | – | – | – | – | – | – | kinetic stability against transmetalation [3]: some transmetalation |
| CN(C)c1cccc2c(S(=O)(=O)NCC(=O)O)cccc12 [dansylglycine] | – | – | – | – | – | – | Kd (HSA): 2.5 µM |
